From US10251395B2, “Substituted furano-/thienocycloalkylamino-2-pyrimidine derivatives and use thereof for controlling undesired plant growth” (Bayer CropScience Aktiengesellschaft, priority 2015, dated 2019)

Columns and labels:
Polygonum convolvulus [1] = assay: Post-emergence herbicidal effect; assay type: in vivo; conditions: 320 g/ha, assessed visually after about 3 weeks vs untreated controls
Procedure, shortened: (§1)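 Greenhouse weeds grown in sandy loam were sprayed at the one-leaf stage, 2–3 weeks after sowing, with WP or EC formulations in 600–800 L/ha water plus 0.2% wetting agent. Damage was scored visually after about 3 weeks as percent activity relative to untreated controls, where 100% means the plants died.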

Echinochloa crus-galli [2] = assay: Post-emergence herbicidal effect; assay type: in vivo; conditions: 320 g/ha, assessed visually after about 3 weeks vs untreated controls
Procedure, shortened: as §1

Stellaria media [3] = assay: Post-emergence herbicidal effect; assay type: in vivo; conditions: assessed visually after about 3 weeks vs untreated controls
Procedure, shortened: as §1

Abutilon theophrasti [4] = assay: Post-emergence herbicidal effect; assay type: in vivo; conditions: assessed visually after about 3 weeks vs untreated controls
Procedure, shortened: as §1

Polygonum convolvulus [5] = assay: Pre-emergence herbicidal effect; assay type: in vivo; conditions: scored visually after 3 weeks
Procedure, shortened: (§2)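 Seeds sown in sandy loam and covered with soil; WP or EC formulations sprayed onto the soil surface as aqueous suspension/emulsion at 600 to 800 L/ha water with 0.2% wetting agent. Greenhouse-grown; damage scored visually after 3 weeks against untreated controls (100% = plants dead, 0% = like control).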

Setaria viridis = assay: Pre-emergence herbicidal effect; assay type: in vivo; conditions: scored visually after 3 weeks
Procedure, shortened: as §2

Veronica persica [6] = assay: Pre-emergence herbicidal effect; assay type: in vivo; conditions: scored visually after 3 weeks
Procedure, shortened: as §2

Matricaria inodora = assay: Pre-emergence herbicidal effect; assay type: in vivo; conditions: scored visually after 3 weeks
Procedure, shortened: as §2

Viola tricolor [7] = assay: Pre-emergence herbicidal effect; assay type: in vivo; conditions: scored visually after 3 weeks
Procedure, shortened: as §2

Lolium multiflorum = assay: Pre-emergence herbicidal effect; assay type: in vivo; conditions: Dosage 320 g/ha, scored visually after 3 weeks
Procedure, shortened: as §2

Echinochloa crus-galli [8] = assay: Pre-emergence herbicidal effect; assay type: in vivo; conditions: scored visually after 3 weeks
Procedure, shortened: as §2

Amaranthus retroflexus [9] = assay: Pre-emergence herbicidal effect; assay type: in vivo; conditions: scored visually after 3 weeks
Procedure, shortened: as §2

Stellaria media [10] = assay: Pre-emergence herbicidal effect; assay type: in vivo; conditions: scored visually after 3 weeks
Procedure, shortened: as §2

Abutilon theophrasti [11] = assay: Pre-emergence herbicidal effect; assay type: in vivo; conditions: Dosage 320 g/ha, scored visually after 3 weeks
Procedure, shortened: as §2

Veronica persica [12] = assay: Post-emergence herbicidal effect; assay type: in vivo; conditions: 320 g/ha, assessed visually after about 3 weeks vs untreated controls
Procedure, shortened: as §1

Viola tricolor [13] = assay: Post-emergence herbicidal effect; assay type: in vivo; conditions: assessed visually after about 3 weeks vs untreated controls
Procedure, shortened: as §1

Amaranthus retroflexus [14] = assay: Post-emergence herbicidal effect; assay type: in vivo; conditions: 320 g/ha, assessed visually after about 3 weeks vs untreated controls
Procedure, shortened: as §1

Alopecurus myosuroides = assay: Pre-emergence herbicidal effect; assay type: in vivo; conditions: Dosage 320 g/ha, scored visually after 3 weeks
Procedure, shortened: as §2

logP (HCOOH) = assay type: physicochemical; conditions: HCOOH
Excerpt: Table 2 (physicochemical characterization of selected synthesis examples)

Row | SMILES | post-emergence efficacy ECHCG (Echinochloa crus-galli [2]) [%] | post-emergence efficacy STEME (Stellaria media [3]; 320 g/ha) [%] | post-emergence efficacy ABUTH (Abutilon theophrasti [4]; 320 g/ha) [%] | POLCO pre-emergence efficacy (herbicidal activity) (Polygonum convolvulus [5]; Dosage 320 g/ha) [%] | SETVI pre-emergence efficacy (herbicidal activity) (Setaria viridis; Dosage 320 g/ha) [%] | VERPE pre-emergence efficacy (herbicidal activity) (Veronica persica [6]; Dosage 320 g/ha) [%] | MATIN pre-emergence efficacy (herbicidal activity) (Matricaria inodora; Dosage 320 g/ha) [%] | VIOTR pre-emergence efficacy (herbicidal activity) (Viola tricolor [7]; Dosage 80 g/ha) [%] | VIOTR pre-emergence efficacy (herbicidal activity) (Viola tricolor [7]; Dosage 320 g/ha) [%] | ECHCG pre-emergence efficacy (herbicidal activity) (Echinochloa crus-galli [8]; Dosage 320 g/ha) [%] | AMARE pre-emergence efficacy (herbicidal activity) (Amaranthus retroflexus [9]; Dosage 320 g/ha) [%] | STEME pre-emergence efficacy (herbicidal activity) (Stellaria media [10]; Dosage 80 g/ha) [%] | STEME pre-emergence efficacy (herbicidal activity) (Stellaria media [10]; Dosage 320 g/ha) [%] | ABUTH pre-emergence efficacy (herbicidal activity) (Abutilon theophrasti [11]) [%] | post-emergence efficacy VIOTR (Viola tricolor [13]; 320 g/ha) [%] | logP (HCOOH) (logP (HCOOH)) | other results
1 | Cc1cc2c(s1)CCC2Nc1ncc(S(C)(=O)=O)c(N)n1 (racemic) [compound 4] | 100 | 100 | 90 | 100 | 100 | 100 | 100 | 100 | 100 | 100 | 100 | 100 | 100 | 100 | – | – | post-emergence efficacy POLCO (Polygonum convolvulus [1]): 100%; post-emergence efficacy ABUTH (Abutilon theophrasti [4]; 80 g/ha): 80%; SETVI pre-emergence efficacy (herbicidal activity) (Setaria viridis; Dosage 80 g/ha): 100%; VERPE pre-emergence efficacy (herbicidal activity) (Veronica persica [6]; Dosage 80 g/ha): 100%; MATIN pre-emergence efficacy (herbicidal activity) (Matricaria inodora; Dosage 80 g/ha): 100%; LOLMU pre-emergence efficacy (herbicidal activity) (Lolium multiflorum): 100%; AMARE pre-emergence efficacy (herbicidal activity) (Amaranthus retroflexus [9]; Dosage 80 g/ha): 100%
2 | Cc1cc2c(s1)C(Nc1ncc3c(n1)CCCC3=O)CCC2 (racemic) [compound 8] | 100 | 90 | 80 | 100 | 100 | 100 | 100 | 100 | 100 | 100 | 100 | 80 | 100 | 100 | 90 | – | post-emergence efficacy VERPE (Veronica persica [12]): 90%; post-emergence efficacy AMARE (Amaranthus retroflexus [14]): 90%; post-emergence efficacy STEME (Stellaria media [3]; 80 g/ha): 80%; POLCO pre-emergence efficacy (herbicidal activity) (Polygonum convolvulus [5]; Dosage 80 g/ha): 100%; SETVI pre-emergence efficacy (herbicidal activity) (Setaria viridis; Dosage 80 g/ha): 90%; VERPE pre-emergence efficacy (herbicidal activity) (Veronica persica [6]; Dosage 80 g/ha): 100%; MATIN pre-emergence efficacy (herbicidal activity) (Matricaria inodora; Dosage 80 g/ha): 100%; ECHCG pre-emergence efficacy (herbicidal activity) (Echinochloa crus-galli [8]; Dosage 80 g/ha): 90%; AMARE pre-emergence efficacy (herbicidal activity) (Amaranthus retroflexus [9]; Dosage 80 g/ha): 100%; ALOMY pre-emergence efficacy (herbicidal activity) (Alopecurus myosuroides): 80%
3 | Cc1cc2c(o1)CC(C)(C)CC2Nc1ncc(S(C)(=O)=O)c(N)n1 (racemic) [compound 15] | – | – | – | – | – | – | – | – | – | – | – | – | – | – | – | oily; logP (HCOOH): 2.36; 1H NMR (CDCl3, 400 MHZ, δ in ppm): 1.05 (s, 3H, 3H of | –
4 | Nc1nc(NC2CCCc3sc(Cl)cc32)ncc1C(F)(F)F (racemic) [compound 22] | 90 | 90 | 90 | 100 | 100 | 100 | 100 | – | 100 | 100 | 100 | – | 100 | 80 | 90 | – | post-emergence efficacy POLCO (Polygonum convolvulus [1]): 90%; post-emergence efficacy VERPE (Veronica persica [12]): 90%; post-emergence efficacy AMARE (Amaranthus retroflexus [14]): 100%; LOLMU pre-emergence efficacy (herbicidal activity) (Lolium multiflorum): 100%
5 | Nc1nc(NC2CCc3ccsc32)ncc1[N+](=O)[O-] (racemic) [compound 32] | – | – | – | – | – | – | – | – | – | – | – | – | – | – | – | solid; m.p.: 189.5° C.; logP (HCOOH): 1.53; | –
6 | N#Cc1cnc(NC2CCc3cc(Cl)sc32)nc1N (racemic) [compound 49] | – | – | – | – | – | 70 | – | 100 | 100 | – | 100 | 90 | 100 | – | 90 | solid; logP (HCOOH): 2.32; | post-emergence efficacy VIOTR (Viola tricolor [13]; 80 g/ha): 80%
7 | O=C1CCCc2nc(NC3CCCc4occc43)ncc21 (racemic) [compound 54] | – | – | – | – | – | – | – | – | – | – | – | – | – | – | – | oily; logP (HCOOH): 2.35; 1H NMR (CDCl3, 400 MHZ, δ in ppm): 1.80-2.00 (m, 4H, | –
8 | Cc1sc(C)c2c1CCCC2Nc1ncc(C#N)c(N)n1 (racemic) [compound 56] | – | – | – | – | – | – | – | – | – | – | – | – | – | – | – | oily; logP (HCOOH): 2.66; | –
9 | Cc1nc(NC2CCCc3c(C)sc(C)c32)nc(N)c1C#N (racemic) [compound 64] | – | – | – | – | – | – | – | – | – | – | – | – | – | – | – | solid, logP (HCOOH): 2.71; 1H NMR (CDCl3, 400 MHZ, δ in ppm): 1.75 (m, 3H, 3H | –
